# Assay: Initial experiments: drug release of ezetimibe having particle size about 25 microns
# Assay type: physicochemical
# Conditions: ezetimibe particle size about 25 microns
# Description: The pharmaceutical compositions of present invention can be prepared with techniques well known in the art, preferably, direct compression, dry granulation and wet granulation.
compound,measurement,value
"O=C1[C@H](CC[C@H](O)c2ccc(F)cc2)[C@@H](c2ccc(O)cc2)N1c1ccc(F)cc1 [ezetimibe, Ezetimibe]",release of the drug,40-50%

# From patent US20070275052A1, “Pharmaceutical compositions containing sterol inhibitors” (Glenmark Pharmaceuticals Limited, priority 2006, published 2007)
